Experimental data published in patent US20180237362A1, “NOVEL POLYGODIAL ANALOGS FOR THE TREATMENT OF CANCER AND OTHER PROLIFERATIVE DISEASES” (THE BOARD OF REGENTS OF THE UNIVERSITY OF TAXAS SYSTEM, priority 2015, published 2018).
Where two headings read alike, the source gives them in different places.

Tests used:
[1] = tested on: human MCF-7 breast cancer; experiment: MTT antiproliferative assay, MCF-7; assay type: cell-based; conditions: sextuplicates, read-out: GI50 in vitro values, MCF-7
Description: (§1) Human mammary carcinoma MCF-7 (ATCC HTB22) cells were cultured in RPMI supplemented with 10% FBS. The U87 cells (ATCC HTB-14) were cultured in DMEM culture medium, while the A549 cells (DSMZ ACC107) were cultured in RPMI culture medium supplemented with 10% heat-inactivated FBS. The GBM Hs683 (ATCC HTB-138) cells were cultivated in DMEM supplemented with 10% FBS. The human uterine sarcoma MES-SA (ATCC CRL1966) and MES-SA/D×5 cells were cultured in RPMI-1640 medium supplemented with 10% FBS with MES SA/D×5 maintained in the presence of 500 nM Doxorubicin (Sigma). SKMEL-28 cells (ATCC HTB72) and U373 GBM cells (ECACC 08061901) were cultured in RPMI culture medium supplemented with 10% heat-inactivated FBS. Cell culture media were supplemented with 4 mM glutamine (Lonza code BE17-605E), 100 μg/mL gentamicin (Lonza code 17-5182), and penicillin-streptomycin (200 units/ml and 200 μg/ml) (Lonza code 17-602E). The MDA-MB-231 (ATCC HTB-26) epithelial mammary adenocarcinoma cells were cultured in Eagle's minimum essential medium (EMEM; Invitrogen) containing 5% fetal calf serum (FCS, Cambrex), 2 mM L-glutamine (Invitrogen), 0.06% HEPES (Invitrogen) and penicillin (50 IU/ml)/streptomycin (50 µg/ml; Invitrogen) at 37° C. in a humidified atmosphere of 5% CO2 in air. Transformed mouse NPCs were cultured in suspension under neurosphere conditions at 37° C. in a humidified atmosphere of […] and 5% CO2 in DMEM F12 (Invitrogen 11320-074) supplemented with 1×B27 supplement (Invitrogen 17504-044), 5% penicillin-streptomycin (Biochrom 10378-017), 10 ng/ml EGF (R&D systems 236-EG), 10 ng/ml FGF (PeproTech 100-18B).
(§2) Antiproliferative properties of the synthesized compounds were evaluated by the MTT assay. All compounds were dissolved in DMSO at a concentration of either 100 μM or 50 μM prior to cell treatment. The cells were trypsinized and seeded at various cell concentrations depending on the cell type. The cells were grown for 24 h to 72 h, treated with compounds at concentrations ranging from 0.001 to 100 μM and incubated for 48 or 72 h in 100 or 200 μL media depending on the cell line used. The number of experiments and replicates varied depending on the cell line. Cells treated with 0.1% DMSO were used as a negative control; 1 μM PAO was used as a positive control.
(§3) The synthesized C12-Wittig derivatives were evaluated for antiproliferative activities in a panel of cancer cell lines that included apoptosis-resistant human U373 glioblastoma (GBM) (Lefranc et al., 2013), human A549 non-small cell lung cancer (NSCLC) and human SKMEL-28 melanoma (Mathieu et al., 2009) as well as apoptosis-sensitive human Hs683 anaplastic oligodendroglioma (Lefranc et al., 2013) and human MCF-7 breast cancer (Frolova et al., 2013).

human SKMEL-28 melanoma = experiment: MTT antiproliferative assay, SKMEL-28; assay type: cell-based; conditions: sextuplicates, read-out: GI50 in vitro values, SKMEL-28
Description: as §1, §2, §3

[2] = tested on: human A549 non-small cell lung cancer (NSCLC); experiment: MTT antiproliferative assay, A549; assay type: cell-based; conditions: for GI50: 72 h treatment, MTT assay, sextuplicates, read-out: GI50 in vitro values, A549
Description: as §1, §2, §3

[3] = tested on: human U373 glioblastoma (GBM); experiment: MTT antiproliferative assay, U373; assay type: cell-based; conditions: 72 h treatment, sextuplicates, read-out: GI50 in vitro values, U373
Description: as §1, §2, §3

[4] = tested on: human Hs683 anaplastic oligodendroglioma; experiment: MTT antiproliferative assay, Hs683; assay type: cell-based; conditions: sextuplicates, read-out: GI50 in vitro values, Hs683
Description: as §1, §2, §3

[5] = tested on: panel of cancer cell lines (A549, SKMEL-28, MCF-7, U373, Hs683); experiment: MTT antiproliferative assay, panel of five cancer cell lines; assay type: cell-based, human; conditions: mean over five cell lines, 72 h treatment, MTT assay, read-out: GI50 in vitro values, Mean + SEM
Description: as §2, §3

[6] = biological target: T1, CHO cells that overexpress TRPV1 (CHO-TRPV1) (Homo sapiens, UniProt Q8NER1); experiment: Calcium imaging, CHO-TRPV1; assay type: cell-based; conditions: polygodial 80 μM, P10 4 μM, P3 50 μM
T1 construct: expressed in transfected cells; host or cells: CHO cells
T1 sequence (Q8NER1 whole entry): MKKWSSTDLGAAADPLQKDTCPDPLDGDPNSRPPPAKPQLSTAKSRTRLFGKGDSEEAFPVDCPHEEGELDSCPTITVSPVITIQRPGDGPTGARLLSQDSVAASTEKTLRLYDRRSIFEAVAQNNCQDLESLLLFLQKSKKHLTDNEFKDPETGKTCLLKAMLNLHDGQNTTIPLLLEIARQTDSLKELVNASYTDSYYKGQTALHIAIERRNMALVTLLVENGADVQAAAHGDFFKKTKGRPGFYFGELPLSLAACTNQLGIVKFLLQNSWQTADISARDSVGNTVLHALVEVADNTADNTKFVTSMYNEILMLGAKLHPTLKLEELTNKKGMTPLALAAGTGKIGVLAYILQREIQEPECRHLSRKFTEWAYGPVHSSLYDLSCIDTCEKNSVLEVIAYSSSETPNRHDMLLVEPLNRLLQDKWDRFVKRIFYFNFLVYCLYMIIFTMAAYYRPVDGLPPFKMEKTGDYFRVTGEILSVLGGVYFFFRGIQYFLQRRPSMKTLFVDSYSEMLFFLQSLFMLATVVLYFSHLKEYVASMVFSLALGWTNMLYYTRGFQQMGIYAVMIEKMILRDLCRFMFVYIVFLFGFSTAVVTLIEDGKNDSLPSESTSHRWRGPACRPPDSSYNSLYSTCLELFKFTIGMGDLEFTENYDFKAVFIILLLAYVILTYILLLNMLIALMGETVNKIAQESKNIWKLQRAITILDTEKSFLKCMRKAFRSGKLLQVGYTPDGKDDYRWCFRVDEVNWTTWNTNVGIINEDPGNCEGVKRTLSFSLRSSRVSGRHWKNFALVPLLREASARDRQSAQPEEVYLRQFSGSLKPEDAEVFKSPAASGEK
Description: CHO cells that overexpress TRPV1 (CHO-TRPV1) were treated with polygodial (80 μM), P10 ([…]), or P3 (50 μM) and calcium influx was measured. Cells were also pre-treated with the TRPV1 antagonist capsazepine (CPZ; 10 μM) to determine if calcium influx via TRPV1 was inhibited. 3 μM ionomycin was used as a positive control. Fluo-4 Direct Calcium Assay Kit and Sweptfield confocal with Nikon Ti were used to visualize calcium influx and the images were analyzed using ImageJ software.

HeLa cells = experiment: Calcium imaging, HeLa; assay type: cell-based, human; conditions: polygodial 80 μM, P10 4 μM, P3 50 μM
HeLa-derived tumors = experiment: Mouse xenograft model, HeLa; assay type: in vivo, athymic nude mice
Description: Six-week old female athymic nude mice were used in laminar air-flow cabinet in pathogen-free conditions. They were acclimated for one week prior to the start of the study and kept at controlled temperature and humidity, with food and water. Mice were injected subcutaneously in the flank with 2×10^6 Cal27 cells or HeLa cells in 0.1 mL of sterile PBS. When the tumors reached 100 mm^3 (Cal27) and 150 mm^3 (HeLa), the mice were stratified into 4 groups, […], polygodial, P10, P3 and P27 at the concentrations noted in the figure legends.

[7] = tested on: cervical cancer cell line HeLa; experiment: Cell viability (Cell Titer 96 Aqueous), HeLa; assay type: cell-based, human; conditions: 48 hours; potency order P10, polygodial, P3
Text: (§4) Human cancer cell lines were obtained from the American Type Culture Collection (ATCC, Manassas, Va., USA), the European Collection of Cell Culture (ECACC, Salisbury, UK) and the Deutsche Sammlung von Mikroorganismen und Zellkulturen (DSMZ, Braunschweig, Germany). The OSCC cell lines, Cal27 and HSC3 are derived from human primary tongue tumor. Cal27 cells were obtained from the American Type Culture Collection (Rockville, Md.). HSC3 cells were provided by Dr. Brian Schmidt. HeLa cells (cervical cancer cell line) were obtained from ATCC. Cells were cultured in DMEM, containing 10% FBS and 1% penicillin-streptomycin media, at 37° C. in 5% CO2. All cells were authenticated by Genetic DNA Laboratories.
(§5) The cytotoxicity of polygodial, P10, P3, and P27 in Cal27, HSC3, and HeLa cells was examined in vitro using a colorimetric assay, Cell Titer 96® Aqueous Non-Radioactive Cell Proliferation Assay. […] GraphPad Prism4 was used to perform statistical analysis.

HSC3 cells = experiment: Calcium imaging, HSC3; assay type: cell-based, human
OSCC cell line HSC3 = experiment: Cell viability (Cell Titer 96 Aqueous), HSC3; assay type: cell-based, human; conditions: 48 hours; potency order P10, polygodial, P3
Text: as §4, §5

[8] = tested on: MDR uterine sarcoma cell line MES-SA/Dx5; experiment: MTT antiproliferative assay, MDR MES-SA/Dx5; assay type: cell-based, human
Description: as §1, §2
Selection of the MES-SA/D×5 cell line was done according to Harker et al. (Harker & Sikic, 1985). The cells were split and allowed to adhere overnight. The next day cells were initially exposed to doxorubicin (DOX) at the concentration of 100 nM, which represented the GI50 concentration. The cells were maintained at this DOX concentration until their growth rate reached that of the untreated cells. The DOX concentration was then increased in two-fold increments following the same growth criteria at each concentration to a final DOX concentration of 500 nM. Each new DOX concentration required approximately 2 passages to reach the growth rate of the untreated cells.
Often, tumors initially respond to chemotherapy but eventually become refractory to the continuing treatment. Such acquired resistance commonly occurs through the development of a multi-drug resistant phenotype (MDR) (Gottesman et al., 2002 and Saraswathy & Gong, 2013) affecting many common chemotherapeutic agents, including the vinca alkaloids (Chen et al., 2000) and taxanes (Geney et al., 2002). In addition, the development of apoptosis resistance and MDR mechanisms is often related and concurrent (Ruefli et al., 2002 and Johnstone et al., 1999), and thus it was of interest to evaluate 5 against MDR cells. Towards this end, the MDR uterine sarcoma cell line MES-SA/D×5, established by growing the parent uterine sarcoma MES-SA in the presence of increasing concentrations of doxorubicin and resistant to multiple functionally and structurally unrelated molecules (Harker & Sikic, 1985), was utilized.

[9] = tested on: uterine sarcoma MES-SA cells; experiment: MTT antiproliferative assay, MES-SA; assay type: cell-based, human; conditions: Homo sapiens, MES-SA, 48 h treatment, relative to DMSO control, read-out: GI50 in vitro values, MES-SA
Description: as §1
(§6) Antiproliferative properties of the synthesized compounds were evaluated by the MTT assay. All compounds were dissolved in DMSO at a concentration of either 100 μM or 50 μM prior to cell treatment. The cells were trypsinized and seeded at various cell concentrations depending on the cell type. […]

[10] = tested on: U87 glioblastoma cell cultures; experiment: MTT growth curves, U87; assay type: cell-based, human; conditions: apoptosis-resistant U87 GBM; concentrations up to 100 μM
Description: as §1, §6

Structure (SMILES) | GI50 ([1]; 72 h treatment) | GI50 (human SKMEL-28 melanoma; 72 h treatment) | GI50 [2] | GI50 [3] | GI50 ([4]; 72 h treatment) | GI50 [5] | further results
CC(=O)/C=C/C1=CCC2C(C)(C)CCC[C@]2(C)[C@@H]1C=O (stereo partly shown) [Compound 12] | 20 µM | 28 µM | 24 µM | 25 µM | 22 µM | 24 ± 1 µM | 
CC1(C)CCCC2(C)C(C=O)C(C=CC(=O)OCc3ccccc3)=CCC12 (stereo not shown) [Compound 9] | 27 µM | 39 µM | 28 µM | 39 µM | 31 µM | 33 ± 3 µM | 
CC1(C)CCC[C@@]2(C)C1CC=C(/C=C/C#N)[C@H]2C=O (stereo partly shown) [Compound 11] | 31 µM | 42 µM | 27 µM | 36 µM | 28 µM | 33 ± 3 µM | 
CCOC(=O)/C=C/C1=CCC2C(C)(C)CCC[C@]2(C)[C@@H]1C=O (stereo partly shown) [Compound 6] | 30 µM | 29 µM | 25 µM | 37 µM | 29 µM | 30 ± 2 µM | 
CCOC(=O)C(C)=CC1=CCC2C(C)(C)CCCC2(C)C1C=O (stereo not shown) [Compound 7] | 27 µM | 37 µM | 26 µM | 37 µM | 28 µM | 31 ± 2 µM | 
COC(=O)/C=C/C=C/C1=CCC2C(C)(C)CCC[C@]2(C)[C@@H]1C=O (stereo partly shown) [Compound 10] | 31 µM | 25 µM | 29 µM | 27 µM | 12 µM | 25 ± 3 µM | 
CC1(C)CCC[C@]2(C)[C@H](C=O)C(C=O)=CC[C@@H]12 [Compound P10, 9-epi-polygodial] |  |  |  |  |  |  | TRPV1 activation (calcium influx), CHO-TRPV1 [6]: do not; calcium influx, HeLa (HeLa cells): did not induce calcium influx; anti-tumor effect, HeLa-derived tumors (HeLa-derived tumors; 40 μg/100 μl intra-tumor injection every other day for 18 days, polygodial significantly more efficacious than P3): not efficacious in vivo; adverse effects, HeLa xenograft mice (HeLa-derived tumors; mouse, in vivo): no adverse effects in vivo; cancer cell viability, HeLa [7]: reduced cancer cell viability in vitro; reversal of calcium influx by capsazepine, HSC3 (HSC3 cells; CPZ 10 μM): not reversed; calcium influx, HSC3 (HSC3 cells; polygodial 80 μM, P10 4 μM, P3 50 μM): did induce calcium influx; cancer cell viability, HSC3 (OSCC cell line HSC3): reduced cancer cell viability in vitro
CC(C)(C)OC(=O)/C=C/C1=CCC2C(C)(C)CCC[C@]2(C)[C@@H]1C=O (stereo partly shown) [Compound 8] | 32 µM | 41 µM | 29 µM | 40 µM | 29 µM | 34 ± 3 µM | 
CC[C@]1(O)C[C@@H]2CN(CCc3c([nH]c4ccccc34)[C@@](C(=O)OC)(c3cc4c(cc3OC)N(C)[C@H]3[C@@](O)(C(=O)OC)[C@H](OC(C)=O)[C@]5(CC)C=CCN6CC[C@]43[C@@H]65)C2)C1 [Vinblastine] |  |  |  |  |  |  | change of potency against MES-SA/Dx5 MDR cell line as compared with parent MES-SA cells ([8]; 48 h MTT): lost their potency by a factor of a thousand; GI50 ([8]; Homo sapiens, MES-SA/Dx5, 48 h treatment, MTT assay, relative to DMSO control, read-out: GI50 in vitro values, MES-SA/Dx5): 5 µM; GI50 [9]: 0.006 µM
COc1cc([C@@H]2c3cc4c(cc3[C@H](O)[C@H]3COC(=O)[C@H]23)OCO4)cc(OC)c1OC [podophyllotoxin, reference compound] |  |  |  |  |  |  | effect on proliferation/viability of all cells, A549 ([2]; apoptosis-resistant A549 NSCLC, concentrations up to 100 μM): no effect on proliferation of ca. 50% of cells; effect on proliferation/viability of all cells, U87 [10]: no effect on proliferation of ca. 50% of cells
COC(=O)/C=C/C1=CCC2C(C)(C)CCC[C@]2(C)[C@@H]1C=O (stereo partly shown) |  |  |  |  |  |  | GI50 ([1]; Homo sapiens, MCF7, 72 h treatment): 28 ± 1 µM; GI50 (human SKMEL-28 melanoma; Homo sapiens, SK-MEL-28, 72 h treatment): 70 ± 1 µM; GI50 ([2]; Homo sapiens, A549): 29 ± 1 µM; GI50 ([3]; Homo sapiens, U373 MG): 39 ± 1 µM; GI50 ([4]; Homo sapiens, Hs 683, 72 h treatment): 33 ± 0.5 µM; GI50 ([5]; Homo sapiens): 40 ± 8 µM
